In assay [1] the test system is Raw 264.7 cells. Put plainly: In vitro anti-inflammatory effect, nitrite by Griess reaction in LPS-treated Raw 264.7 cells. The conditions noted are these: 10 μM Budesonide equivalent, 378 μg/ml HA, 4 hours, then 1 μg/mL LPS 24 hours. It counts as cell-based. The protocol:
• 1. Raw 264.7 cells were suspended in culture medium without phenol red (Gibco-BRL, Vienna, Austria) and adjusted to 10^6/ml, and treated with 10 μM Budesonide, 378 μg/ml HA and HA-ADH-Budesonide (equal to 10 μM Budesonide). • 2. After treatment with drugs for 4 hours, 1 μg/mL LPS was added into medium for 24 hours. • 3. Cells treated with medium only served as a negative control group and treated with LPS (1 μg/mL) as a positive control group. • 4. The culture supernatants were removed subsequently and the nitric oxide were accumulated for the measurement of iNOS activity by the Griess-reaction. • 5. 100 μl Griess reagent (1% sulfanilamide, 0.1% naphthlethylenediamine dihydrochloride in 2.5% phosphoric acid) was added into 100 μl culture supernatant and the color development was assessed at 550 nm with a ELISA microplate reader (SpectraMax® M2e Multimode Plate Reader, Molecular Devices, USA). • 6. Standard curves were generated with a serial dilution of sodium nitrite dissolved in culture medium which is phenol red free. […] The inflammation index herein is nitrite.
(In general: The Griess reaction detects nitrite, a stable product of nitric oxide.)

For assay [2], the system named is Adjuvant-Induced Arthritis (AIA). Put plainly: Adjuvant-Induced Arthritis (rheumatoid arthritis) treatment effect in rats. It counts as in vivo, Sprague-Dawely rats. The conditions noted are these: intravenous injection at day 14, 10 mg/kg. The protocol: • 1. Thirty of eight weeks male Sprague-Dawely rats (BioLASCO Taiwan Co., Ltd.) were prepared. Rats were divided into 4 groups randomly (n=9 for vehicle and Prednisolone group, n=6 for HA-ADH-Prednisolone and HA group). Every two rats were placed into one cage in rodent animal facility in Institute of Taiwan Animal Technology. • 2. Inject 0.1 mL of CFA (Complete Freund's Adjuvant, 10 mg/mL, Chondrex Inc.) containing 10 mg/mL of heat-killed mycobacterium into subcutaneously at a footpad of right hind limb. • 3. The needle should be inserted just under the skin of the footpad pointing toward the ankle: this maximizes delivery of the adjuvant to the draining popliteal lymph nodes. • 4. Severe and acute inflammation is observed within 30 minutes of injection, peaks within 3 to 4 days, and often persists for 20 to 25 days. • 5. Rat were treated at day 14 after induction of the Adjuvant-Induced Arthritis (AIA) by intravenous injection of Prednisolone or HA-Prednisolone (both 10 mg/kg), or saline as a control. • 6. Rats were sacrificed at day 20 after treatment and tissues were isolated hereafter.
• Paw thickness and Ankle circumference: Paw thickness determined by measuring paw diameter using a caliper, such as Mitsutoyo digimatic caliper. Ankle circumference determined by measuring 2 perpendicular diameters, the latero-lateral diameter (a) and the anteroposterior diameter (b), with a digital caliper and using the following formula: […]

Assay [3] relates to Raw 264.7 cells. The assay can be described thus: In vitro anti-inflammatory effect, PGE2 amount in LPS-treated Raw 264.7 cells. It counts as cell-based. Conditions: 4 hours.
Description: Raw 264.7 cells (1×10^6 cells/well, 1000 μL) were incubated in a 24-well culture plate in the presence of 5% CO2 at 37° C. for 24 hours. • 2. […] Cell media were collected, and used for measuring PGE2. • 4. Nunc-Immuno 96-well plates were coated with goat polyclonal anti-mouse IgG secondary antibody. • 5. Aliquots of cell media were added to the immune plate with primary PGE2 monoclonal antibody and a tracer PGE2-acetylcholinesterase overnight at room temperature in the dark. • 6. The next day, the wells were aspirated, washed with 100 μL wash buffer (Cayman Chemical, Ann Arbor, MI, USA) five times. • 7. 200 μL of Elman's reagent was added in each well, and incubated 60-90 minutes at room temperature out of direct light. • 8. Gentle rotating/shaking was used to decrease the time required for color development. • 9. Absorbance was read at 412 nm. • 10. The PGE2 concentration of each sample was calculated from a PGE2 standard curve. • 11. The PGE2 amount percentage was as a function of the PGE2 level of each sample divided by the one of the control group which was LPS-treated, then multiplied this value by 100. • 12. […]
Raw 264.7 cells (1×10^6 cells/well, 1000 μL) were incubated in a 24-well culture plate in the presence of 5% CO2 at 37° C. for 24 hours. • 2. […] Absorbance was read at 412 nm. • 10. The PGE2 concentration of each sample was calculated from a PGE2 standard curve. • 11. […]

Take hyaluronic acid [HA]: in the assay with Raw 264.7 cells [1], the “anti-inflammation effect, change of nitrite concentration (FIG. 6)” value is given as “have treatment effect”. Also, in assay [2], the “treatment effect, change percentage of ankle circumference (FIG. 12)” value is “enhance RA symptom” and the “treatment effect, change percentage of paw thickness (FIG. 11)” value was “almost the same trend comparing with control group”.
Consider `C[C@]12C=CC(=O)C=C1CC[C@@H]1[C@@H]2[C@@H](O)C[C@@]2(C)[C@H]1CC[C@]2(O)C(=O)CO` [Prednisolone], for which the “treatment effect, change percentage of paw thickness (FIG. 11)” value in assay [2] was “showed the treatment effect”. Also, the “anti-inflammation effect, change percentage of PGE2 amount (FIG. 10)” value in the assay on Raw 264.7 cells [3] (86.7 μM Prednisolone or equivalent, then 1 μg/mL LPS 24 hours) is given as “has treatment effect”.
In the case of `CC(C)(C(=O)O)c1ccc(C(O)CCCN2CCC(C(O)(c3ccccc3)c3ccccc3)CC2)cc1` (stereo not drawn) [Fexofenadine], the “anti-inflammation effect, change percentage of PGE2 amount (FIG. 8)” value in the assay on Raw 264.7 cells [3] (100 μM Fexofenadine or equivalent, then 1 μg/mL LPS 24 h) was “has treatment effect”.
